Measured values reported in article PMC5026600 (ACS chemical biology, 2016).
Like-named read-outs stand apart in the source and are kept apart here.

Assays:
MycCI-RhFRED = MycCI-RhFRED (Micromonospora griseorubida, UniProt Q83WF5); assay: Steady-state kinetics / TOF, product formation by HPLC; type: biochemical; conditions: for Fold lower rate of product formation vs tripartite MycCI system: MycCI-RhFRED compared to MycCI/MycCII/MBP-FdR, label is the product formed
MycCI [1] = molecular target: T1, MycCI (Micromonospora griseorubida, UniProt Q83WF5); assay: Equilibrium substrate binding assay; conditions: for Percent of enzyme in high-spin state at saturating substrate: MycCI wild-type, relative to saturation with 10 taken as complete conversion
T1 sequence (Q83WF5 1-388): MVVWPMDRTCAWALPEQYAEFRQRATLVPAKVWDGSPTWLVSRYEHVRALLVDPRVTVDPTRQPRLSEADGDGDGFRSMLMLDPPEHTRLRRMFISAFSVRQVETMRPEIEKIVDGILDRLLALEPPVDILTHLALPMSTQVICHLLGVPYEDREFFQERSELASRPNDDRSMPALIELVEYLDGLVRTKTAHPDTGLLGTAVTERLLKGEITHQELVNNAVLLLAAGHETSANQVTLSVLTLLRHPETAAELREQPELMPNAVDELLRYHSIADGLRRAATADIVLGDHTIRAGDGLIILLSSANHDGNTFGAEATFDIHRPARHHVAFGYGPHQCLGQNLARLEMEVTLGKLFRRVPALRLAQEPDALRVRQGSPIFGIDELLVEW

[2] = molecular target: T2, MycCI in conjunction with MycCII and MBP-FdR (Micromonospora griseorubida, UniProt Q83WF5); assay: Scale-up reactions with MycCI, MycCII and MBP-FdR, conversion; type: biochemical; conditions: for Conversion: scale-up reactions
T2 sequence (Q83WF5 1-388): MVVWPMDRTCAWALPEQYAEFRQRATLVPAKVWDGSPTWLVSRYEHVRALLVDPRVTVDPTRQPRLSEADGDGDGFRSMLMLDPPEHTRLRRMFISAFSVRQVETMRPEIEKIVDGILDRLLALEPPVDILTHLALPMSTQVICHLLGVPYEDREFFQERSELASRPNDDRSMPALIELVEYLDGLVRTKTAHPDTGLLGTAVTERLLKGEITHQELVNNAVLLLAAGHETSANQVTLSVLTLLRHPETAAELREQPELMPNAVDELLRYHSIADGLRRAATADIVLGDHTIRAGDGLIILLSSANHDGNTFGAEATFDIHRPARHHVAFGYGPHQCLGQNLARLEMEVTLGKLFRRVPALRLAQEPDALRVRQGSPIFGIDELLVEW

OleP = conditions: binding to OleP; cited from earlier work
MycCI/MycCII/MBP-FdR = molecular target: T3, MycCI/MycCII/MBP-FdR (Micromonospora griseorubida, UniProt Q83WF5); assay: Steady-state kinetics / TOF, product formation by HPLC; type: biochemical
T3 sequence (Q83WF5 1-388): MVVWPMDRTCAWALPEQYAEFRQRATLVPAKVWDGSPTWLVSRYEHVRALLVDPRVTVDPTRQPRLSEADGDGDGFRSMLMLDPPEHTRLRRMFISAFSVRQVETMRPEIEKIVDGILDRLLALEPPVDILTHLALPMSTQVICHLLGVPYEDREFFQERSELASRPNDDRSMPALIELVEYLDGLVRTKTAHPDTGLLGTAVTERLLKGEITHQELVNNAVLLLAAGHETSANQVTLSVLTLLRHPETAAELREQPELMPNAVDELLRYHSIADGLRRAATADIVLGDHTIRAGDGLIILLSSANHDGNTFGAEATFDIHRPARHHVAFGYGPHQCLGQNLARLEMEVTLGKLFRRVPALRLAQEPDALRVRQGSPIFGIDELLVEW

MycCI [3] = molecular target: T1, MycCI; conditions: determined by monitoring NADPH consumption; cited from earlier work
TamI-RhFRED = conditions: cited from earlier work
MycCI/MycCII = molecular target: T4, MycCI/MycCII (Micromonospora griseorubida, UniProt Q83WF5); assay: Total turnover number; type: biochemical; conditions: MycCI/MycCII/MBP-FdR
T4 sequence (Q83WF5 1-388): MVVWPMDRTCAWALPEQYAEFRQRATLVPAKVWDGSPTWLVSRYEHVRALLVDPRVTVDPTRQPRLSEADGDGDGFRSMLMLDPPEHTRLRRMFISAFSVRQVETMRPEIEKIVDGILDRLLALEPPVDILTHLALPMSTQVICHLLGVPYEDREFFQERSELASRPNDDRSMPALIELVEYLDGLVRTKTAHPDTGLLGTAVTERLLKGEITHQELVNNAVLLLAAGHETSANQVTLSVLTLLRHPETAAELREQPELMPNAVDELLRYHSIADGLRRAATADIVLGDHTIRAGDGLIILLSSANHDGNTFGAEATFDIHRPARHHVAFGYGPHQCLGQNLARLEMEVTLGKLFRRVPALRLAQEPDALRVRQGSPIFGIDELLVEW

[4] = molecular target: MycCI (Micromonospora griseorubida) (UniProt Q83WF5); conditions: cited from earlier work
TylHI/TylHII = TylHI/TylHII (Streptomyces fradiae, UniProt Q9ZHQ1); assay: Turnover frequency; type: biochemical; conditions: TylHI/TylHII/MBP-FdR
TylHI/MycCII = TylHI/MycCII (Streptomyces fradiae, UniProt Q9ZHQ1); assay: Turnover frequency; type: biochemical; conditions: MycCII as surrogate ferredoxin vs TylHII
MycCI [5] = molecular target: T1, MycCI; conditions: read-out: apparent dissociation constant (Kd); N-terminal His-tagged MycCII binding to MycCI; cited from earlier work

TylHI/MycCII, sequence (Q9ZHQ1 whole entry): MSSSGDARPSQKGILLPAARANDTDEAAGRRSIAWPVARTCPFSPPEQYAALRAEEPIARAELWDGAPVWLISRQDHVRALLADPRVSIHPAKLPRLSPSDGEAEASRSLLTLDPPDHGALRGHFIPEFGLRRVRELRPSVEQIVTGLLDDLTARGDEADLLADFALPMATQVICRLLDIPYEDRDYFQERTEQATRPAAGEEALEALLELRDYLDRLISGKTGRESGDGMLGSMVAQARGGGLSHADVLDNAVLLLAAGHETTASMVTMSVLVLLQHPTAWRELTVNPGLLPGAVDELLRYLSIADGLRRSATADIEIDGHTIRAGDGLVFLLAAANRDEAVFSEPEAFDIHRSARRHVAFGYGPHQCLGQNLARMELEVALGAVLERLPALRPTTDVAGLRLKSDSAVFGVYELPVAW
TylHI/TylHII, sequence (Q9ZHQ1 whole entry): as above

**Q.** Which “Fold lower rate of product formation vs tripartite MycCI system” value (MycCI-RhFRED) does the source give for 23-hydroxy-tylactone [compound 15] here?
**A.** about 3 fold

**Q.** Which “Percent of enzyme in high-spin state at saturating substrate” value (MycCI [1]) does the source give for CC[C@H]1OC(=O)[C@H](C)C(=O)[C@H](C)[C@@H](O[C@@H]2O[C@H](C)C[C@H](N(C)C)[C@H]2O)[C@@H](C)C[C@@H](C)C(=O)/C=C/[C@H]1C [compound 5, narbomycin] here?
**A.** ~ 80%

**Q.** And the “Monohydroxylated product, share of the reaction mixture” value ([2]; scale-up, first monohydroxylated product)?
**A.** ~ 2%

**Q.** What about the “Slightly more polar monohydroxylated product, share of the reaction mixture” value ([2]; scale-up, second product) of the same molecule?
**A.** ~ 0.5%

**Q.** With CC(=O)N1CCN(c2ccc(OCC3COC(Cn4ccnc4)(c4ccc(Cl)cc4Cl)O3)cc2)CC1 (centres unmarked) [ketoconazole] as the molecule, how does the Kd (OleP) read?
**A.** 0.005 µM

**Q.** Which results are given for CC[C@H]1OC(=O)/C=C/[C@H](C)[C@@H](O[C@@H]2O[C@H](C)C[C@H](N(C)C)[C@H]2O)[C@@H](C)C[C@@H](C)C(=O)/C=C/C=C/[C@@H]1C [compound 9, mycinamicin VIII]?
**A.** Turnover frequency (TOF) (MycCI-RhFRED; MycCI-RhFRED, 500 μM substrate): 1.19 ± 0.06 min⁻¹; Turnover rate at low substrate concentration (MycCI/MycCII/MBP-FdR; MycCI/MycCII/MBP-FdR, 10 μM substrate): 2.3 ± 0.3 min⁻¹; Turnover frequency (TOF) (MycCI/MycCII/MBP-FdR; tripartite MycCI/MycCII/MBP-FdR, 500 μM substrate): 1.4 ± 0.1 min⁻¹; kcat (MycCI [3]): 1.73 ± 0.033 s⁻¹

**Q.** Which results are given for CC[C@H]1C[C@@H](C)C(=O)/C=C/C(C)=C/[C@H](C)[C@@H](CC)OC(=O)C[C@@H](O)[C@H](C)[C@H]1O [compound 10, tylactone]?
**A.** Kd (MycCI [1]; Kd, MycCI): ~3 µM; Conversion [2]: ~ 50%

**Q.** For CC(/C=C/C(O)=C1/C(=O)CNC1=O)=C\[C@@H](C)[C@H]1O[C@@]2(C)O[C@H](C(=O)[C@H]3O[C@]32C)[C@@H]1C [tirandamycin A], which kcat (TamI-RhFRED) is on record?
**A.** 0.00183 ± 0.00017 s⁻¹

**Q.** Which results are given for CC[C@H]1OC(=O)/C=C/[C@H](C)[C@@H](O)[C@@H](C)C[C@@H](C)C(=O)/C=C/C=C/[C@@H]1C [compound 8, protomycinolide IV]?
**A.** Percent of enzyme in high-spin state at saturating substrate (MycCI [1]): ~ 80%; Fold lower specificity constant relative to 10 (MycCI-RhFRED; MycCI-RhFRED, product formation): ~ 14 fold; Conversion [2]: ~ 30%

**Q.** For CC[C@H]1OC(=O)/C=C/[C@H](C)[C@@H](O)[C@@H](C)C[C@@H](C)C(=O)/C=C/C=C/[C@@H]1CO [compound 13, mycinolide IV], which “Fold lower rate of product formation vs tripartite MycCI system” value (MycCI-RhFRED) is on record?
**A.** ~6 fold

**Q.** For CC[C@H]1OC(=O)[C@H](C)[C@@H](O[C@@H]2O[C@H](C)C[C@H](N(C)C)[C@H]2O)[C@@H](C)C[C@@H](C)C(=O)/C=C/[C@H]1C [compound 3, YC-17], which “C-H oxidation of the compound by the enzyme” value (shortened to “C-H oxidation of the compound”) (MycCI/MycCII) is on record?
**A.** unable to catalyze C-H oxidation

**Q.** And the “Percent of enzyme in high-spin state at saturating substrate” value (MycCI [1])?
**A.** ~ 30%

**Q.** With CC[C@H]1OC(=O)[C@H](C)C(=O)[C@H](C)[C@@H](O)[C@@H](C)C[C@@H](C)C(=O)/C=C/[C@H]1C [compound 4, narbonolide] as the molecule, how does the “C-H oxidation of the compound” value (MycCI/MycCII) read?
**A.** unable to catalyze C-H oxidation

**Q.** And the “Concentration-dependent change in the spin state of the enzyme” value (MycCI [1]; MycCI)?
**A.** did not induce a concentration-dependent change in the spin state

**Q.** With MycCII (from UniProt Q83WF4) as the molecule, how does the Kd [4] read?
**A.** 7 µM

**Q.** Which “Turnover frequency (TOF)” value (TylHI/TylHII) does the source give for CC[C@H]1OC(=O)C[C@@H](O)[C@H](C)[C@@H](O[C@@H]2O[C@H](C)[C@@H](O)[C@H](N(C)C)[C@H]2O)[C@@H](CC=O)C[C@@H](C)C(=O)/C=C/C(C)=C/[C@@H]1C [compound 12, 23-deoxy-5-O-mycaminosyl-tylonolide] here?
**A.** 0.14 ± 0.03 min⁻¹

**Q.** And the “Fold increase of TOF with MycCII instead of TylHII” value (TylHI/MycCII)?
**A.** 12 fold

**Q.** With CC[C@H]1OC(=O)[C@H](C)[C@@H](O)[C@@H](C)C[C@@H](C)C(=O)/C=C/[C@H]1C [compound 2, 10-deoxymethynolide] as the molecule, how does the “C-H oxidation of the compound” value (MycCI/MycCII) read?
**A.** unable to catalyze C-H oxidation

**Q.** And the “Concentration-dependent change in the spin state of the enzyme” value (MycCI [1]; MycCI)?
**A.** did not induce a concentration-dependent change in the spin state

B1: MycCII: [3Fe-4S]-type ferredoxin encoded by mycCII, redox partner of MycCI (protein)
chain: MRIVLDAERCVGAGQCEATAPELFTQGDDGLGLVRDRPVTPELLGPAREAVDRCPVRAIRIESSVRTGWARGAG
modifications: left off: His tag, N-terminal, state not stated
**Q.** For B1, which Kd (MycCI [5]) is on record?
**A.** 7 µM
